From patent US20220153732A1, “PROTEIN SECRETION INHIBITORS” (KEZAR LIFE SCIENCES, priority 2019, published 2022)

How the values were obtained:
Type in all cases: cell-based
[1] = system: human multiple myeloma cell line U266B1; experiment: U266 Cell Viability Assay; details: U-266, 48 hr, U266B1 cells, Celltiter-Glo, read-out: 48 hr U266 Viability Celltiter-Glo: Mean EC50
Summary of the method: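 U266B1 myeloma cells treated with compound dilutions in DMSO/media for 48 h at 37 °C, 5% CO2. Viability read by CellTiter-Glo luminescence. Stereochemically undefined structures were tested as stereoisomer mixtures.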

[2] = system: PD1-ss+10aa/Gaussia Luciferase; experiment: Dox-Induced PD1-ss-Gluc Assay; details: 24 hr doxycycline induction, 293FRT/TO cells, Gaussia luciferase signal; read-out: 24 hr Dox Inducible PD1ssGluc 293FRT/TO: Mean IC50
Summary of the method: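 Stable cell line carrying PD1-ss+10aa/Gaussia luciferase cDNA under T-REx (doxycycline-inducible) control, plated the day before assay. Compound dilutions in DMSO/media containing doxycycline added and incubated at 37° C, 5% CO2. Undefined stereocentres: data refer to stereoisomer mixtures.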

[3] = system: IL-2-FL/Gaussia Luciferase; experiment: Dox Induced IL2-FL-Gluc Assay; details: 24 hr doxycycline induction, 293FRT/TO cells, Gaussia luciferase signal; read-out: 24 hr Dox Inducible IL2FLGIuc 293FRT/TO: Mean IC50
Summary of the method: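 Stable T-REx cell line expressing doxycycline-inducible IL-2-FL/Gaussia luciferase cDNA, plated the day before assay. Compound dilutions in DMSO/media containing doxycycline added and incubated at 37° C., 5% CO2. Unspecified stereochemistry means data refer to a stereoisomer mixture.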

[4] = system: TNFα-FL/Gaussia Luciferase; experiment: Dox Induced TNFα-FL-Gluc Assay; details: 24 hr doxycycline induction, 293FRT/TO cells, Gaussia luciferase signal; read-out: 24 hr Dox Inducible TNFaFLGluc 293FRT/TO: Mean IC50
Summary of the method: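 A stable T-REx cell line carrying doxycycline-inducible TNFα-FL/Gaussia luciferase was plated the day before assay. Compound dilutions in DMSO/media containing doxycycline were then added and incubated at 37° C, 5% CO2.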

[5] = system: human multiple myeloma cell line NCI-H929; experiment: H929 Cell Viability Assay; details: 48 hr, NCI-H929 cells, Celltiter-Glo, read-out: 48 hr H929 Viability Celltiter-Glo: Mean EC50
Description: Plates were incubated at 37° C., 5% CO2 for 48 hours. After 48 hours, Celltiter-Glo® (Promega) was added to each well and luciferase signal was quantified using Tecan Infinite M1000 Pro for cell viability determination.
For chemical structures that include one or more stereoisomers, but are illustrated without indicating stereochemistry, the assay data refers to a mixture of stereoisomers.

[6] = system: HER3-ss+4aa/Gaussia Luciferase; experiment: Dox-Induced Her3-ss-Gluc Assay; details: 24 hr doxycycline induction, 293FRT/TO cells, Gaussia luciferase signal; read-out: 24 hr Dox Inducible Her3(ss + 4)Gluc 293FRT/TO: Mean IC50
Summary of the method: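 Stable T-REx cell line carrying a doxycycline-regulated HER3-ss+4aa/Gaussia luciferase insert, plated the day before assay. Compound dilutions in DMSO/media with doxycycline added, then incubated at 37° C., 5% CO2. Stereoisomer mixtures tested where stereochemistry is not drawn.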

Structure (SMILES)	EC50 [1] [µM]	IC50 [2] [µM]	IC50 [3] [µM]	IC50 [4] [µM]	EC50 [5] [µM]	IC50 [6] [µM]
Cc1cc(Cn2cccc2C(=O)Nc2nc(C(C)(C)OC(C)C)cs2)cc(C)n1 [Compound A97]	> 25	18.9	> 25	> 25	> 25	> 25
CCN(C(=O)c1cccn1Cc1ccncc1)c1nc(C)cs1 [Compound A98]	> 25	19.6	> 25	> 25	> 25	> 25
CC(=O)N(C)c1ccc(Cn2cccc2C(=O)Nc2nc(C(C)(C)OC(C)C)cs2)cc1 [Compound A99, N-(4-(2-isopropoxypropan-2-yl)thiazol-2-yl)-1-(4-(N-methylacetamido)benzyl)-1H-pyrrole-2-carboxamide]	> 25	19.9	> 25	> 25	> 25	> 25
CC(C)OC(C)(C)c1csc(NC(=O)c2ccn(Cc3ccncc3)n2)n1 [Compound A100, N-(4-(2-isopropoxypropan-2-yl)thiazol-2-yl)-1-(pyridin-4-ylmethyl)-1H-pyrazole-3-carboxamide]	> 25	24.6	> 25	> 25	24.6	> 25
CC(=O)N1CCC(CCCn2cccc2C(=O)Nc2nc(C(C)(C)OC(C)C)cs2)CC1 [Compound A101, 1-(3-(1-acetylpiperidin-4-yl)propyl)-N-(4-(2-isopropoxypropan-2-yl)thiazol-2-yl)-1H-pyrrole-2-carboxamide]	> 25	> 25	> 25	> 25	> 25	> 25
CC(C)OC(C)(C)c1csc(NC(=O)C2CCCC(=O)N2Cc2ccncc2)n1 (stereo not drawn) [Compound A102, N-(4-(2-isopropoxypropan-2-yl)thiazol-2-yl)-6-oxo-1-(pyridin-4-ylmethyl)piperidine-2-carboxamide]	> 25	> 25	> 25	> 25	> 25	> 25
Cc1cc(C(=O)Nc2nc(C(C)(C)OC(C)C)cs2)n(Cc2ccncc2)n1 [Compound A103]	> 25	> 25	> 25	> 25	> 25	> 25
CC(C)OC(C)(C)c1csc(NC(=O)c2cncn2Cc2ccncc2)n1 [Compound A104, N-(4-(2-isopropoxypropan-2-yl)thiazol-2-yl)-1-(pyridin-4-ylmethyl)-1H-imidazole-5-carboxamide]	> 25	> 25	> 25	> 25	> 25	> 25
CC(C)OC(C)(C)c1csc(NC(=O)c2ccc(C(N)=O)n2Cc2ccncc2)n1 [Compound A105, N-(4-(2-isopropoxypropan-2-yl)thiazol-2-yl)-1-(pyridin-4-ylmethyl)-1H-pyrrole-2,5-dicarboxamide]	> 25	> 25	> 25	> 25	> 25	> 25
CC(C)OC(C)(C)c1csc(NC(=O)c2cccc(=O)n2Cc2ccncc2)n1 [Compound A106, N-(4-(2-isopropoxypropan-2-yl)thiazol-2-yl)-6-oxo-1-(pyridin-4-ylmethyl)-1,6-dihydropyridine-2-carboxamide]	> 25	> 25	> 25	> 25	> 25	> 25

The remaining lines, values ahead:

EC50 [1] [µM]	IC50 [2] [µM]	IC50 [3] [µM]	IC50 [4] [µM]	EC50 [5] [µM]	IC50 [6] [µM]	Structure (SMILES)
> 25	> 25	> 25	> 25	> 25	> 25	CC(C)OC(C)(C)c1csc(NC(=O)c2ccc(C(=O)N(C)C)n2Cc2ccncc2)n1 [Compound A107, N2-(4-(2-isopropoxypropan-2-yl)thiazol-2-yl)-N5,N5-dimethyl-1-(pyridin-4-ylmethyl)-1H-pyrrole-2,5-dicarboxamide]
> 25	> 25	7.27	> 25	> 25	> 25	CC(C)OC(C)(C)c1csc(NC(=O)c2nccn2Cc2ccncc2)n1 [Compound A108, N-(4-(2-isopropoxypropan-2-yl)thiazol-2-yl)-1-(pyridin-4-ylmethyl)-1H-imidazole-2-carboxamide]
> 25	> 25	> 25	> 25	19.5	> 25	CC(C)OC(C)(C)c1csc(NC(=O)c2cc(C(N)=O)cn2Cc2ccncc2)n1 [Compound A109, N2-(4-(2-isopropoxypropan-2-yl)thiazol-2-yl)-1-(pyridin-4-ylmethyl)-1H-pyrrole-2,4-dicarboxamide]
> 25	> 25	> 25	> 25	> 25	> 25	CC(C)OC(C)(C)c1csc(NC(=O)c2ccc(CO)n2Cc2ccncc2)n1 [Compound A110, 5-(hydroxymethyl)-N-(4-(2-isopropoxypropan-2-yl)thiazol-2-yl)-1-(pyridin-4-ylmethyl)-1H-pyrrole-2-carboxamide]
> 25	> 25	> 25	> 25	> 25	> 25	CC(C)OC(C)(C)c1csc(NC(=O)c2cc(C(=O)N(C)C)cn2Cc2ccncc2)n1 [Compound A111, N2-(4-(2-isopropoxypropan-2-yl)thiazol-2-yl)-N4,N4-dimethyl-1-(pyridin-4-ylmethyl)-1H-pyrrole-2,4-dicarboxamide]
> 25	> 25	> 25	> 25	> 25	> 25	CC(C)OC(C)(C)c1csc(NC(=O)c2ccnn2Cc2ccncc2)n1 [Compound A112, N-(4-(2-isopropoxypropan-2-yl)thiazol-2-yl)-1-(pyridin-4-ylmethyl)-1H-pyrazole-5-carboxamide]
> 25	> 25	> 25	> 25	> 25	> 25	CC(C)OC(C)(C)c1csc(NC(=O)c2cc(CO)cn2Cc2ccncc2)n1 [Compound A113, 4-(hydroxymethyl)-N-(4-(2-isopropoxypropan-2-yl)thiazol-2-yl)-1-(pyridin-4-ylmethyl)-1H-pyrrole-2-carboxamide]
> 25	> 25	> 25	> 25	> 25	> 25	CC(=O)Nc1ccc(Cn2cccc2C(=O)Nc2nc(C(C)(C)OC(C)C)cs2)cc1 [Compound A114, 1-(4-acetamidobenzyl)-N-(4-(2-isopropoxypropan-2-yl)thiazol-2-yl)-1H-pyrrole-2-carboxamide]
> 25	> 25	> 25	> 25	> 25	> 25	O=C(Nc1nc2nccnc2s1)c1cccn1Cc1ccncc1 [Compound A115]
> 25	> 25	> 25	> 25	> 25	> 25	CN(C(=O)c1cccn1Cc1ccncc1)c1nc2ccccc2s1 [Compound A116]
> 25	> 25	> 25	> 25	> 25	> 25	CC(C)c1csc(CNC(=O)c2cccn2Cc2ccncc2)n1 [Compound A117, N-((4-isopropylthiazol-2-yl)methyl)-1-(pyridin-4-ylmethyl)-1H-pyrrole-2-carboxamide]
> 25	> 25	> 25	> 25	> 25	> 25	Cc1csc(N(C)C(=O)c2cccn2Cc2ccncc2)n1 [Compound A118]
> 25	> 25	> 25	> 25	> 25	> 25	O=C(Nc1ncc(CCO)s1)c1cccn1Cc1ccncc1 [Compound A119]
> 25	> 25	> 25	> 25	> 25	> 25	O=C(Nc1nc(CCO)cs1)c1cccn1Cc1ccncc1 [Compound A120]
